Tests used:
human ATB^0,+ = target: T1, human ATB^0,+ (Homo sapiens, UniProt Q9UN76); assay: L-tryptophan-induced inward currents in X. laevis oocytes expressing human ATB^0,+; assay type: cell-based; settings: 1 mM added simultaneously with 20 μM L-tryptophan
T1 construct: The human ATB^0,+ cDNA was cloned from an MCF7 cell (a human mammary epithelial cancer cell line) cDNA library; expressed in transfected cells; host or cells: Xenopus laevis oocytes injected with 50 ng capped cRNA
T1 sequence (Q9UN76 1-642): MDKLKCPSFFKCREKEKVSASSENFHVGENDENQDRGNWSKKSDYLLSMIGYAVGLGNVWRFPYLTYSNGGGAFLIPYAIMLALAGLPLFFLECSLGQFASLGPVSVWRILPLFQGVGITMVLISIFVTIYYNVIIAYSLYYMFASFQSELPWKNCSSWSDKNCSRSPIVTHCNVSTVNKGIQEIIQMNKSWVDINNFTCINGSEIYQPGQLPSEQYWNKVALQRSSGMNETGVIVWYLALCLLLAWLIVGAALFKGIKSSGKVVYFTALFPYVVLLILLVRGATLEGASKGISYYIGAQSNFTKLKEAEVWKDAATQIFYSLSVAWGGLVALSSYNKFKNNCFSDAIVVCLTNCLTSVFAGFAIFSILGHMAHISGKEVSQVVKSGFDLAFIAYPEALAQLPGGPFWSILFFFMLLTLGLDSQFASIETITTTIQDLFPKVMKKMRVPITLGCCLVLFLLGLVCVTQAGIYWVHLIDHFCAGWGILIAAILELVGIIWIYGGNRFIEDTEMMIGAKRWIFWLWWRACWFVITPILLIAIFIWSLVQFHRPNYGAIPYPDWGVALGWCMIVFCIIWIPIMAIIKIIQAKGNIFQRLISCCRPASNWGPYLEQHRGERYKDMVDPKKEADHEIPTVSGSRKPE
Description: Capped cRNA from the cloned mouse or human ATB^0,+ cDNA was synthesized using the mMESSAGE mMACHTNE kit (Ambion, Austin, Tex., U.S.A.). Mature oocytes (stage IV or V) from X. laevis were injected with 50 ng of cRNA. Uninjected oocytes served as controls. The oocytes were used for electrophysiological studies 3-6 days after cRNA injection. Electrophysiological studies were performed by the two-microelectrode voltage-clamp method (Nakanishi et al., 2001, J. Physiol. 532, 297-304). Oocytes were superfused with an NaCl-containing buffer (100 mM NaCl, 2 mM KCl, 1 mM MgCl2, 1 mM CaCl2, 3 mM Hepes, 3 mM Mes and 3 mM Tris, pH 7.5), followed by the same buffer containing tryptophan derivatives. The membrane potential was clamped at −50 mV. The differences between the steady-state currents measured in the presence and absence of substrates were considered as the substrate-induced currents. In the analysis of the saturation kinetics of substrate-induced currents, the kinetic parameter K0.5 (i.e. substrate concentration necessary for induction of half-maximal current) was calculated by fitting the values of the substrate-induced currents to the Michaelis-Menten equation. The Na^+ and Cl^− activation kinetics of substrate-induced currents were analysed by measuring the substrate-specific currents in the presence of increasing concentrations of Na^+ (concentration of Cl^− kept constant at 100 mM) or in the presence of increasing concentrations of Cl^− (concentration of Na^+ kept constant at 100 mM). In these experiments, the composition of the superfusion buffer was modified to contain 2 mM potassium gluconate, 1 mM MgSO4 and 1 mM calcium gluconate in place of KCl, MgCl2 and CaCl2 respectively. The data from these experiments were analysed by the Hill equation to determine the Hill coefficient (h; number of Na^+ and Cl^− ions involved in the activation process). The kinetic parameters were determined by using the commercially available computer program Sigma Plot, version 6.0 (SPSS, Chicago, Ill., U.S.A.). […]

[1] = tested on: MDA-MB231, MDA-MB361 and MDA-MB453 cell lines; assay: Colony formation assay, malignant ATB^0,+-negative mammary epithelial cell lines; assay type: cell-based, human; settings: 2.5 mM, 12 days, no or very low ATB^0,+
Description: The colony formation assay was performed as described previously (Thangaraju et al., 2006, Cancer Res. 66, 11560-11564). Mammary epithelial cells were seeded on to 6-well plates (10000 cells per well) in DMEM. After 24 hours, cells were exposed to varying concentrations of α-methyl-DL-tryptophan or 1-methyl-DL-tryptophan for 2 weeks, changing medium every 2 days. Cells were washed with PBS and fixed in 100% (v/v) methanol for 30 min followed by staining with KaryoMAX Giemsa stain for one hour. The wells were washed with water and dried overnight at room temperature. Finally, the dye in the wells was dissolved with 1% SDS in 0.2 M NaOH for one hour, and the attenuance of the released dye was measured at 630 nm.
The present studies have identified α-methyl-DL-tryptophan as a blocker of ATB^0,+ and also have shown that the compound is able to block the transport of amino acids via ATB^0,+ under conditions that stimulate those in vivo in terms of amino acid concentrations. […] For this, we treated the human mammary epithelial cell lines with 2.5 mM α-methyl-DL-tryptophan in the presence of regular culture medium for 12 days in clonogenic assay and quantified the colony formation for each cell line in the presence and absence of α-methyl-DL-tryptophan (FIG. 8). […]

SMILES	effect on inward currents induced by 20 μM L-tryptophan (human ATB^0,+)	effect on colony formation [1]
CC(N)(Cc1c[nH]c2ccccc12)C(=O)O (racemic) [α-methyl-DL-tryptophan]	blocked completely	little or no effect
Cn1cc(CC(N)C(=O)O)c2ccccc21 (racemic) [1-methyl-DL-tryptophan]	greater than that with 20 μM L-tryptophan alone	

— patent US8436039B2, “Inhibitors of the ATB(0,+) transporter and uses thereof” (Georgia Health Sciences University Research Institute, Inc., priority 2008, dated 2013)
